Reference: patent publication US20210395210A1, “INHIBITION OF BACTERIAL CHAPERONIN SYSTEMS” (THE TRUSTEES OF INDIANA UNIVERSITY, priority 2018, published 2021)
Like-named read-outs stand apart in the source and are kept apart here.

Key:
[1] = biological target: T1, native MDH (Sus scrofa, UniProt P00346); experiment: Counter-screen for inhibition of native MDH enzymatic activity; format: biochemical, pig
T1 construct: soluble pig heart MDH from Roche, product #10127248001; purchased Roche 10127248001; host or cells: pig heart
T1 sequence (P00346 25-338): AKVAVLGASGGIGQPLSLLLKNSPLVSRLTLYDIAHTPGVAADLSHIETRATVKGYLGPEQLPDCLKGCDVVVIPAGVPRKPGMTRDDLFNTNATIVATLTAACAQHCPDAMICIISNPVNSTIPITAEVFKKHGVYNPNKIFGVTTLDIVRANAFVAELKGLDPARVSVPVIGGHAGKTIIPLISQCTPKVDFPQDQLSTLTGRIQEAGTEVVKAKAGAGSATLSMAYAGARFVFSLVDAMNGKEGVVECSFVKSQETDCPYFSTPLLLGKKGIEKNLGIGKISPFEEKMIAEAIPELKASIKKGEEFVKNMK
Method in brief: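 Fully refolded MDH, produced by a 45 min, 37 °C GroEL/ES reaction and stopped with EDTA, was then dosed with compound (62.5 μM–29 nM, 8 points, 3-fold). Activity was read as A340 NADH decrease until ~90% consumed; reported IC50s are means of at least quadruplicate runs.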

[2] = tested on: Enterococcus faecium (ATCC 19434); experiment: Bacterial proliferation assay, E. faecium; format: cell-based
From the text: (§1) Bacterial Strains: Enterococcus faecium—(Orla-Jensen) Schleifer and Kilpper-Balz strain NCTC 7171 (ATCC 19434); Drug sensitive Staphylococcus aureus—Rosenbranch strain Seattle 1945 (ATCC 25923); Methicillin resistant S. aureus (MRSA)—Rosenbach strain HPV107 (ATCC BAA-44); Klebsiella Pneumonia—(Schroeter) Trevisan strain NCTC 9633 (ATCC 13883); Acinetobacter baumannii—Bouvet and Grimont strain 2208 (ATCC 19606); Pseudomonas aeruginosa—(Schroeter) Migula strain NCTC 10332 (ATCC 10145); Enterobacter cloacae—E. cloacae, subsp. cloacae (Jordan) Hormaeche and Edwards strain CDC 442-68 (ATCC 13047).
(§2) Growth Media: All bacteria were grown in Brain Heart Infusion (BHI) broth/agar (Becton, Dickinson and Company). All liquid cultures were grown in BHI media supplemented with 25 mg/L Ca^2+ and 12.5 mg/L Mg^2+ to mimic free physiological concentrations of these cations. A 10 mg/mL Ca^2+ stock solution was prepared by dissolving 3.68 g of CaCl2.2H2O in 100 mL of deionized water, and a 10 mg/mL Mg^2+ stock solution was prepared by dissolving 8.36 g of MgCl2.6H2O in 100 mL deionized water. Both stock solutions were filter-sterilized using 0.2 μm pore size cellulose-acetate filters. 2.5 mL of the sterile 10 mg/mL Ca^2+ stock and 1.25 mL of the sterile 10 mg/mL Mg^2+ stock solutions were added per 1 L of autoclaved BHI medium to obtain 25 mg/L Ca^2+ and 12.5 mg/L Mg^2+ ions, respectively.
(§3) General Assay Protocol: Stock bacterial cultures were streaked onto BHI agar plates and grown overnight at 37° C. Fresh aliquots of broth were inoculated with single bacterial colonies and the cultures were grown overnight at 37° C. with shaking (240 rpm) in cation adjusted BHI media. The following morning, the overnight cultures were sub-cultured (1:5 dilution) into fresh aliquots of cation adjusted BHI media and grown at 37° C. for 1-2 hours with shaking. After 2 h, cultures were diluted into fresh media to achieve final OD600 readings of 0.017. Aliquots of these diluted cultures (30 μL) were added to clear, flat-bottom, 384-well polystyrene plates that were stamped with 0.5 μL of test compounds in 20 μL media. […] Plates were sealed with “Breathe Easy” oxygen permeable membranes (Diversified Biotech) and left to incubate at 37° C. without shaking (stagnant assay). OD600 nm readings were taken at either 6-8 h (S. aureus, MRSA, K. pneumonia, E. cloacae, and P. aeruginosa) or 24 h (E. faecium and A. baumannii). A second set of baseline control plates were prepared analogously, but without any bacteria added, to correct for possible compound absorbance and/or precipitation. Plates were then read at 600 nm using a Molecular Devices SpectraMax Plus384 microplate reader. […] Results presented represent the averages of EC50 values obtained from at quadriplicate (duplicate of duplicate) replicates.

[3] = tested on: Drug sensitive Staphylococcus aureus (ATCC 25923); experiment: Bacterial proliferation assay, drug sensitive S. aureus; format: cell-based
From the text: as §1, §2, §3

[4] = tested on: Methicillin resistant S. aureus (MRSA) (ATCC BAA-44); experiment: Bacterial proliferation assay, MRSA; format: cell-based, Staphylococcus aureus; conditions: Staphylococcus aureus
From the text: as §1, §2, §3

[5] = tested on: Klebsiella Pneumonia (ATCC 13883); experiment: Bacterial proliferation assay, K. pneumoniae; format: cell-based
From the text: as §1, §2, §3

[6] = tested on: Acinetobacter baumannii (ATCC 19606); experiment: Bacterial proliferation assay, A. baumannii; format: cell-based
From the text: as §1, §2, §3

[7] = tested on: Enterobacter cloacae (ATCC 13047); experiment: Bacterial proliferation assay, E. cloacae; format: cell-based
From the text: as §1, §2, §3

[8] = log of IC50 (μM scale), with standard deviation, read-out: log(IC50) Native MDH Reporter (converted)
[9] = read-out: Biochemical Assay IC50 Native MDH Reporter
[10] = ATCC19434, OD600 at 24 h, read-out: Bacterial Proliferation EC50 E. faecium
[11] = ATCC19434, log of EC50 (μM scale), with standard deviation, read-out: log(EC50) Bacterial Proliferation Assay C. faecium (converted)
[12] = ATCC25923, OD600 at 6-8 h, read-out: Bacterial Proliferation EC50 S. aureus Sensitive
[13] = ATCC25923, log of EC50 (μM scale), with standard deviation, read-out: log(EC50) Bacterial Proliferation Assay S. aureus Sensitive (converted)
[14] = MRSA, OD600 at 6-8 h, read-out: Bacterial Proliferation EC50 S. aureus Resistant
[15] = MRSA, log of EC50 (μM scale), with standard deviation, read-out: log(EC50) Bacterial Proliferation Assay S. aureus Resistant (converted)
[16] = ATCC13883, OD600 at 6-8 h, read-out: Bacterial Proliferation EC50 K. pneumoniae
[17] = ATCC13883, log of EC50 (μM scale), with standard deviation, read-out: log(EC50) Bacterial Proliferation Assay K. pneumoniae (converted)
[18] = ATCC19606, OD600 at 24 h, read-out: Bacterial Proliferation EC50 A. baumannii
[19] = ATCC19606, log of EC50 (μM scale), with standard deviation, read-out: log(EC50) Bacterial Proliferation Assay A. baumannii (converted)
[20] = ATCC13047, OD600 at 6-8 h, read-out: Bacterial Proliferation EC50 E. cloacae
[21] = ATCC13047, log of EC50 (μM scale), with standard deviation, read-out: log(EC50) Bacterial Proliferation Assay E. cloacae (converted)

Structure (SMILES) | IC50 [1, 8] | IC50 [1, 9] | EC50 [2, 10] | EC50 [2, 11] | EC50 [3, 12] | EC50 [3, 13] | EC50 [4, 14] | EC50 [4, 15] | EC50 [5, 16] | EC50 [5, 17] | EC50 [6, 18] | EC50 [6, 19] | EC50 [7, 20] | EC50 [7, 21] | further results
O=C(Nc1ccccc1)c1cccc(Br)c1O [Compound 14, 3-Bromo-2-hydroxy-N-phenylbenzamide] | > 63.1 µM | > 63 µM | > 100 µM | > 100 µM | 6.4 µM | 6.46 µM | 10 µM | 10 ± 1.7 µM | > 100 µM | > 100 µM | > 100 µM | > 100 µM | > 100 µM | > 100 µM | –
O=C(Nc1ccccc1)c1cc(Br)ccc1O [Compound 15, 5-Bromo-2-hydroxy-N-phenylbenzamide] | > 63.1 µM | > 63 µM | > 100 µM | > 100 µM | 2.8 µM | 2.75 µM | 4.1 µM | 4.07 µM | 78 µM | 77.6 µM | > 100 µM | > 100 µM | > 100 µM | > 100 µM | –
O=C(Nc1ccccc1)c1ccccc1O [Compound 16, 2-Hydroxy-N-phenylbenzamide] | – | – | – | – | – | – | – | – | – | – | – | – | – | – | IC50 ([1]; Biochemical Assay IC50 Native MDH Reporter): > 63 µM; IC50 ([1]; log(IC50) Native MDH Reporter, log of IC50 (μM scale), with standard deviation): > 63.1 µM; EC50 ([2]; ATCC19434, 24 h, read-out: Bacterial Proliferation EC50 E. faecium): > 100 µM; EC50 ([2]; ATCC19434, read-out: log(EC50) Bacterial Proliferation Assay C. faecium (converted)): > 100 µM; EC50 ([3]; ATCC25923, read-out: Bacterial Proliferation EC50 S. aureus Sensitive): 28 µM; EC50 ([3]; ATCC25923, read-out: log(EC50) Bacterial Proliferation Assay S. aureus Sensitive (converted)): 27.5 µM; EC50 ([4]; read-out: Bacterial Proliferation EC50 S. aureus Resistant): 51 µM; EC50 ([4]; read-out: log(EC50) Bacterial Proliferation Assay S. aureus Resistant (converted)): 51.3 µM; EC50 ([5]; ATCC13883, read-out: Bacterial Proliferation EC50 K. pneumoniae): > 100 µM; EC50 ([5]; ATCC13883, read-out: log(EC50) Bacterial Proliferation Assay K. pneumoniae (converted)): > 100 µM; EC50 ([6]; ATCC19606, 24 h, read-out: Bacterial Proliferation EC50 A. baumannii): > 100 µM; EC50 ([6]; ATCC19606, read-out: log(EC50) Bacterial Proliferation Assay A. baumannii (converted)): > 100 µM; EC50 ([7]; ATCC13047, read-out: Bacterial Proliferation EC50 E. cloacae): > 100 µM; EC50 ([7]; ATCC13047, read-out: log(EC50) Bacterial Proliferation Assay E. cloacae (converted)): > 100 µM
O=C(Nc1ccc(Sc2nc3ccccc3s2)c(Cl)c1)c1cc(Br)cc(Br)c1 [Compound 17, N-(4-(Benzo[d]thiazol-2-ylthio)-3-chlorophenyl)-3,5-dibromobenzamide] | > 63.1 µM | > 63 µM | > 100 µM | > 100 µM | > 100 µM | > 100 µM | – | > 100 µM | > 100 µM | > 100 µM | > 100 µM | > 100 µM | > 100 µM | > 100 µM | –
O=C(Nc1ccc(Sc2nc3ccccc3s2)c(Cl)c1)c1cccc(Br)c1 [Compound 18, N-(4-(Benzo[d]thiazol-2-ylthio)-3-chlorophenyl)-3-bromobenzamide] | > 63.1 µM | > 63 µM | > 100 µM | > 100 µM | > 100 µM | > 100 µM | – | > 100 µM | > 100 µM | > 100 µM | > 100 µM | > 100 µM | > 100 µM | > 100 µM | –
O=C(Nc1ccc(Sc2nc3ccccc3s2)c(Cl)c1)c1ccccc1 [Compound 19, N-(4-(Benzo[d]thiazol-2-ylthio)-3-chlorophenyl)benzamide] | > 63.1 µM | > 63 µM | > 100 µM | > 100 µM | 43 µM | 42.7 µM | > 100 µM | > 100 µM | > 100 µM | > 100 µM | > 100 µM | > 100 µM | > 100 µM | > 100 µM | –
O=C(Nc1ccc(Sc2nc3ccccc3s2)cc1)c1cc(Br)cc(Br)c1 [Compound 20, N-(4-(Benzo[d]thiazol-2-ylthio)phenyl)-3,5-dibromobenzamide] | > 63.1 µM | > 63 µM | > 100 µM | > 100 µM | > 100 µM | > 100 µM | – | > 100 µM | > 100 µM | > 100 µM | > 100 µM | > 100 µM | > 100 µM | > 100 µM | –
O=C(Nc1ccc(Sc2nc3ccccc3s2)cc1)c1cccc(Br)c1 [Compound 21, N-(4-(Benzo[d]thiazol-2-ylthio)phenyl)-3-bromobenzamide] | > 63.1 µM | > 63 µM | > 100 µM | > 100 µM | > 100 µM | > 100 µM | – | > 100 µM | > 100 µM | > 100 µM | > 100 µM | > 100 µM | > 100 µM | > 100 µM | –
O=C(Nc1ccc(Sc2nc3ccccc3s2)cc1)c1ccccc1 [Compound 22, N-(4-(Benzo[d]thiazol-2-ylthio)phenyl)benzamide] | > 63.1 µM | > 63 µM | > 100 µM | > 100 µM | > 100 µM | > 100 µM | – | > 100 µM | > 100 µM | > 100 µM | > 100 µM | > 100 µM | > 100 µM | > 100 µM | –
O=C(Nc1cccc(Cl)c1)c1cc(Br)cc(Br)c1 [Compound 23, 3,5-Dibromo-N-(3-chlorophenyl)benzamide] | > 63.1 µM | > 63 µM | > 100 µM | > 100 µM | 14 µM | 13.8 µM | 12 µM | 11.7 µM | > 100 µM | > 100 µM | > 100 µM | > 100 µM | > 100 µM | > 100 µM | –
